Laboratory results reported in patent publication US20180244645A1, “2-AMINO-3-FLUORO-3-(FLUOROMETHYL)-6-METHYL-6-PHENYL-3,4,5,6-TETRAHYDROPYRIDINES AS BACE1 INHIBITORS” (H. Lundbeck A/S, priority 2015, published 2018).

Test system: Aβ40
Assay: Assessment of Aβ levels in rat brain and plasma following BACE1 inhibition (Aβ40 ELISA)
Format: in vivo
Conditions: 3 hours post dose, vs vehicle
Experimental: Assessment of Aβ Levels in Rat Brain and Plasma Following BACE1 Inhibition. Animals.
All rat care and experimental procedures were approved by Lundbeck Veterinary Staff, according to Danish legislature. The rats were maintained in a barrier facility with a 12/12-h light/dark cycle and ad libitum food and water access.
Young adult Male Sprague Dawley rats of approximately 250 g weight were purchased from Charles River and received 0-30 mg/kg of vehicle (10% HP betaCD+1M MeSO4, pH 2.5) or test compounds (dissolved in vehicle) only by oral gavage (p.o). The compounds are dosed at a volume of 5 ml/kg. Cohorts of 5-10 animals were established for each treatment condition.
The animals undergoing treatment were closely monitored by veterinary staff for any signs of toxicity. Monitoring parameters included body weight, physical appearance, changes in coat appearance, occurrence of unprovoked behavior, and blunted or exaggerated responses to external stimuli.
At T=180 minutes after initial dosing the animals were stunned and decapitated with a guillotine. Trunk-blood was sampled in EDTA coated tubes after decapitation of the animal. The blood was centrifuged at 2200G at 4° C. for 15 minutes and the plasma was collected and frozen at −80° C. The blood was aliquoted for Aβ ELISA and pharmacokinetic analysis. Immediately following sacrifice, the brain was extracted and split into 2 halves. The right hemibrains were snap frozen on dry ice and stored at −80° C. The left half was dissected; with the front forebrain taken for Aβ ELISA and the remainder used for DMPK analysis. These samples were also snap frozen on dry ice and stored at −80° C. until use for analysis.
The cortex samples were thawed slightly on wet ice before they were homogenized with a small volume dispersing instrument (T10 basic ULTRA-TURRAX®) which was set at speed 5 for approximately 5-7 sec. The tissue was processed in a 10 times volume of the weight, for example 100 mg of tissue was homogenized in 1000 μL of Homogenization buffer. Homogenization buffer: 50 ml Milli Q water+50 nM NaCl+0.2% Diethylamin (DEA)+1 tablet of Complete Protease inhibitor cocktail+1 nM 4-(2-aminoethyl) benzenesulfonyl fluoride hydrochloride irreversible serine protease inhibitor (AEBSF).
After homogenization 450 μL aliquots of the samples were collected into a 1.5 ml Eppendorf tube and placed on wet ice, 0.5% NP-40 (50 ul) was added to all samples and then they were incubated on ice for 30 min. After which all samples were sonicated using an Ultrasonic homogenizer with 20 kHz homogeneous sound (SONOPLUS HD2070, Bandelin Electronic) 10 pulse set at 12-13% power to extract all the Aβ species. The samples were then centrifuged (Ole Dich 157 MPRF Micro centrifuge) at 20000G for 20 minutes at 4° C. After centrifugation […] of the supernatant was pipetted into 6004 microtubes tubes and neutralized with 154 of 1M Tris-HCL buffer.
WAKO 294-62501 Human/Rat Abeta amyloid (40) kit was used for all ELISA analyses. 30 μL plasma samples or 30 μL of the cortex supernatants generated as described above were placed in 600 μL microtubes tubes on wet ice. To this 30 μL of 8M urea (AppliChem A1049, 9025) was added to generate a 2-fold dilution. Both plasma and cortex supernatants were incubated on ice for 30 min. Standard rows were prepared from the standard peptide stock provided in the kit and standard diluent containing 1.6M Urea (200 μL 8M urea+800 μL of standard diluent) and 0.8M urea (400 μL 8M urea+3600 μL Standard diluent). A serial 2-fold dilution of […] from 100 pmol/ml to 0 pmol/L was prepared for the assay.
After incubation with urea, all samples were further diluted by addition of 5 times standard diluent from the Kit. This was done by adding 240 μL Standard Diluent to 60 μL sample/urea mixture, which was then mixed well. 100 μL of each diluted sample was pipetted into designated wells of the ELISA plate in duplicates. The plate was then covered and incubated overnight at 4° C. […]

Compound | Aβ40 reduction, Brain Rat (10 mg/kg p.o.) [%] | Aβ40 reduction, Brain Rat (30 mg/kg p.o.) [%] | Aβ40 reduction, Plasma Rat (10 mg/kg p.o.) [%] | Aβ40 reduction, Plasma Rat (30 mg/kg p.o.) [%]
C[C@@]1(c2cc(NC(=O)c3cnc(C(F)F)cn3)ccc2F)CC[C@@](F)(CF)C(N)=N1 [Compound 11, N-(3-((2S,5S)-6-Amino-5-fluoro-5-(fluoromethyl)-2-methyl-2,3,4,5-tetrahydropyridin-2-yl)-4-fluorophenyl)-5-(difluoromethyl)pyrazine-2-carboxamide] | 21 | 41 | 39 | 60
COc1cnc(C(=O)Nc2ccc(F)c([C@]3(C)CC[C@@](F)(CF)C(N)=N3)c2)cn1 [Compound 5, N-(3-((2S,5S)-6-Amino-5-fluoro-5-(fluoromethyl)-2-methyl-2,3,4,5-tetrahydropyridin-2-yl)-4-fluorophenyl)-5-methoxypyrazine-2-carboxamide] | 56 | 65 | 44 | 46
C[C@@]1(c2cc(NC(=O)c3ccc(F)cn3)ccc2F)CC[C@@](F)(CF)C(N)=N1 [Compound 13, N-(3-((2S,5S)-6-Amino-5-fluoro-5-(fluoromethyl)-2-methyl-2,3,4,5-tetrahydropyridin-2-yl)-4-fluorophenyl)-5-fluoropicolinamide] | 43 | 59 | 38 | 38
